Source: patent EP1056700B1, “MEDICINAL USES OF PHENYLALKANOLS AND DERIVATES” (ZingoTX Pty Ltd, priority 1997, dated 1999)
“Also recorded” adds a separate entry of the source.

How the values were obtained:
NK-1 receptor = target: T1, NK-1 receptor (Cavia porcellus, UniProt P30547); assay: Neurokinin-1 binding with [^3H]Substance P on guinea pig submaxillary membrane
T1 construct: tested on guinea pig submaxillary membrane; from tissue; host or cells: guinea pig submaxillary membrane
Description: 3-hydroxy-1-(4-hydroxy-3-methoxyphenyl)dodecane [3.93], was tested on guinea pig submaxillary membrane for neurokinin-1 (NK-1) antagonist activity with tritium labelled [^3H]Substance P and found to have relatively potent inhibition of the binding of Substance P to NK-1 receptor. […] It gave approximately 80% inhibition at 30 µM.

right atrium-vagus rat = assay: Cardiovascular and neuro-effector junction activities: right atrium-vagus, rat; details: result in words with concentration
Excerpt: (§1) The cardiotonic action of 1-(4-hydroxy-3-methoxyphenyl)dodecan-3-ol [3.93] was confirmed from independent studies, carried out at our request as part of our agreement with Johnson & Johnson Research Ltd (J&J), by Prof. James Angus from the University of Melbourne. […] A tachycardial effect of the substance on guinea pig atria was, however, observed at significant rate, 50-60% of isoprenaline Emax and the response was not α- or β-adrenoceptor mediated. […] Cardiovascular and neuro-effector junction activities of gingerol analogues

5-lipoxygenase = target: T2, 5-lipoxygenase (Rattus norvegicus, UniProt P12527); assay: 5-lipoxygenase assay (MDS PANLABS), RBL-1 cells, 5-HETE radioimmunoassay; format: biochemical; details: arachidonic acid as substrate
T2 construct: 5-lipoxygenase activity from rat basophilic leukemia cells (RBL-1); host or cells: RBL-1 (rat basophilic leukemia)
Description: 3-hydroxy-1-(4-hydroxy-3-methoxyphenyl)dodecane [3.93] was tested at MDS PANLABS: Pharmacology Services (Taiwan) for 5-lipoxygenase activity from rat basophilic leukemia cells (RBL-1) with arachidonic acid as substrate. The inhibitory activity of the substance was quantitated, using radioimmunoassay, from the formation of 5-HETE. At 10 µM, the substance gave approximate 90% inhibition of 5-lipoxygenase activity.

[1] = Acute toxicity in mice for 3 days; format: in vivo
Excerpt: However, no toxicity was shown towards mice for dose by the oral route. […] Brine shrimp toxicity for gingerols and gingerol analogues tested ranged from low to moderate.

[2] = system: rabbit platelet-rich plasma; assay: Antiplatelet aggregation screen with arachidonic acid in rabbit platelet-rich plasma; format: cell-based
Bleeding time in mice = format: in vivo
right atrium rat = assay: Cardiovascular and neuro-effector junction activities: right atrium, rat; details: result in words with concentration
Excerpt: as §1

[3] = system: brine shrimp (Artemia salina Leach); assay: Brine shrimp toxicity bioassay; format: in vivo; details: result in words
cardiac Purkinje fibres = assay: Cardiac electrophysiology on Purkinje fibres; set-up: species or system dog; details: for effect on rate of depolarization, amplitude of action potential and duration of action potential at 50% and 90% repolarization: up to 10 µM
Description: The basic cardiac electrophysiological properties were assessed using cardiac Purkinje fibres obtained from adult mongrel dogs.
Electrophysiology was carried out on dog heart purkinje fibre to test for potential arrhythmia. […] At high concentration (50 µM), however, [8]-gingerol reduced approximate 80% and 50% of action potential duration at 50% and 90% repolarisations respectively. Whereas the analogue reduced 75% and 30% respectively.

[4] = dogs, 0.3 mg / kg, i.v.; cited from earlier work

T2 sequence (P12527 whole entry): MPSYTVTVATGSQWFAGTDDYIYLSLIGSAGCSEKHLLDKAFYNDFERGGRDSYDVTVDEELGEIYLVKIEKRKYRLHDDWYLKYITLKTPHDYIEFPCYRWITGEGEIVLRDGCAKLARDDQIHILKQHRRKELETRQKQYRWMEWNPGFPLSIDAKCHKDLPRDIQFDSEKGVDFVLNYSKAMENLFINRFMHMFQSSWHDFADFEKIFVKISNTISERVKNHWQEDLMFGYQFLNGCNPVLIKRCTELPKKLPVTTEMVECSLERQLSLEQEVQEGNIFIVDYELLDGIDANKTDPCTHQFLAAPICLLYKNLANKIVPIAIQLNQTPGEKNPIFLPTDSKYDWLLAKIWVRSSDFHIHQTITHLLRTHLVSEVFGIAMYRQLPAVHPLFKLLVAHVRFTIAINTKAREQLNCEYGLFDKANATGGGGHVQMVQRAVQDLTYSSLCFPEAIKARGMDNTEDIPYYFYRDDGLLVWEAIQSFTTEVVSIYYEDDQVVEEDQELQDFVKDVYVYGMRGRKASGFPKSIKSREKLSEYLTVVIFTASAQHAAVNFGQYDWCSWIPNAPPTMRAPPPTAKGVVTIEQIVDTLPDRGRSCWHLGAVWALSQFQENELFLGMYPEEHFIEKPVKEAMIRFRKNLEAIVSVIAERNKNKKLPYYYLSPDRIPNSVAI
T1 sequence (P30547 whole entry): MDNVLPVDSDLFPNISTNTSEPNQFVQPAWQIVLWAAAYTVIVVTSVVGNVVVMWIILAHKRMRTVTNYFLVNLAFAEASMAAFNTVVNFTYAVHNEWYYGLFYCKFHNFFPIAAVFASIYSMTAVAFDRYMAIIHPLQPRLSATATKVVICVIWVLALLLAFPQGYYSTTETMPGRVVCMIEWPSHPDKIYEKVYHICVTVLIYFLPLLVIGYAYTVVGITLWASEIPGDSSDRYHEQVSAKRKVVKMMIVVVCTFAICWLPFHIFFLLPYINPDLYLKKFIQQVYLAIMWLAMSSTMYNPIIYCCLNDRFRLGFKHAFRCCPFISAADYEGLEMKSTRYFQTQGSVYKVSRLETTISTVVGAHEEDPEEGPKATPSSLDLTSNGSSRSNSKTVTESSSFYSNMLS

| Structure (SMILES) | right atrium-vagus rat (right atrium-vagus rat) | right atrium rat (right atrium rat) | Action Potential Amplitude (cardiac Purkinje fibres; 5 µM) | Action Potential Duration 50% repolarisation (cardiac Purkinje fibres; 5 µM) | Action Potential Duration 90% repolarisation (cardiac Purkinje fibres; 5 µM) | Maximum rate of depolarisation (cardiac Purkinje fibres; 5 µM) | Action Potential Amplitude (cardiac Purkinje fibres; 10 µM) | Action Potential Duration 50% repolarisation (cardiac Purkinje fibres; 10 µM) | Action Potential Duration 90% repolarisation (cardiac Purkinje fibres; 10 µM) | Maximum rate of depolarisation (cardiac Purkinje fibres; 10 µM) | Action Potential Amplitude (cardiac Purkinje fibres; 20 µM) | Action Potential Duration 50% repolarisation (cardiac Purkinje fibres; 20 µM) | Action Potential Duration 90% repolarisation (cardiac Purkinje fibres; 20 µM) | Maximum rate of depolarisation (cardiac Purkinje fibres; 20 µM) | Action Potential Amplitude (cardiac Purkinje fibres; 30 µM) | Action Potential Duration 50% repolarisation (cardiac Purkinje fibres; 30 µM) | Action Potential Duration 90% repolarisation (cardiac Purkinje fibres; 30 µM) | Maximum rate of depolarisation (cardiac Purkinje fibres; 30 µM) | Action Potential Amplitude (cardiac Purkinje fibres; 40 µM) | Action Potential Duration 50% repolarisation (cardiac Purkinje fibres; 40 µM) | also measured |
| --- | --- | --- | --- | --- | --- | --- | --- | --- | --- | --- | --- | --- | --- | --- | --- | --- | --- | --- | --- | --- | --- |
| CCCCCCCCCC(O)CCc1ccc(O)c(OC)c1 (centres unmarked) [1-(4-hydroxy-3-methoxyphenyl)dodecan-3-ol] | dramatic enhancement n=1 10^-6 - 10^-5 M | tachycardi a 3x10^-7 - 3x10^-6 M (with propranolo 1 present) | – | – | – | – | – | – | – | – | – | – | – | – | – | – | – | – | – | – | inhibition at 30 µM (NK-1 receptor): ~80%; inhibition at 10 µM (5-lipoxygenase): ~90%; Acute toxicity ([1]; mice, 3 days, intraperitoneal administration): slight decrease in spontaneous activity, response to touch and limb tone; Acute toxicity ([1]; mouse, in vivo, po): no toxicity; platelet function via adenosine diphosphate or thromboxane A2 mechanisms [2]: did not affect; antiplatelet aggregation activity compared with the indomethacin reference compound ([2]; arachidonic acid as substrate): three time more potent; effect on bleeding time (Bleeding time in mice): little or no effect; toxicity towards brine shrimp [3]: low toxicity |
| CCCCCCCC(O)CC(=O)c1ccc(O)c(OC)c1 (centres unmarked) [3-hydroxy-1-(4-hydroxy-3-methoxyphenyl)decan-1-one] | some enhanced slowing 10^-6 - 10^-5 M | no change basal rate 10^-7 - 10^-5 M | 125±3 mV | 176 ± 17 ms | 270 ± 26 ms | 524±66 V/s | 127±4 mV | 157 ± 23 ms | 257 ± 25 ms | 527±78 V/s | 123±6 mV | 124 ± 16 ms | 245 ± 17 ms | 521±87 V/s | 115±7 mV | 94 ± 10 ms | 212 ± 21 ms | 423±45 V/s | 117±7 mV | 81 ± 10 ms | Action Potential Duration 90% repolarisation (cardiac Purkinje fibres; 40 µM): 201 ± 13 ms; Maximum rate of depolarisation (cardiac Purkinje fibres; 40 µM): 442±61 V/s; Action Potential Amplitude (cardiac Purkinje fibres; 50 µM): 110±9 mV; Action Potential Duration 50% repolarisation (cardiac Purkinje fibres; 50 µM): 55 ± 4 ms; Action Potential Duration 90% repolarisation (cardiac Purkinje fibres; 50 µM): 188 ± 19 ms; Maximum rate of depolarisation (cardiac Purkinje fibres; 50 µM): 363±74 V/s; reduction of action potential duration at 50% repolarisation (cardiac Purkinje fibres; 50 µM): 75%; reduction of action potential duration at 90% repolarisation (cardiac Purkinje fibres; 50 µM): 30%; effect on rate of depolarization, amplitude of action potential and duration of action potential at 50% and 90% repolarization (cardiac Purkinje fibres; listed as 3.92): insignificant effect; also recorded: only a small effect |
| CCCCCCCC(O)CC(=O)CCc1ccc(O)c(OC)c1 (centres unmarked) [[8]-gingerol, 5-hydroxy-1-(4-hydroxy-3-methoxyphenyl)dodecan-3-one, reference compound] | – | – | 124±2 mV | 242 ± 20 ms | 363 ± 27 ms | 532±42 V/s | 120±4 mV | 207 ± 20 ms | 339 ± 26 ms | 483±41 V/s | 119±2 mV | 142 ± 20 ms | 285 ± 26 ms | 499±41 V/s | 114±3 mV | 107 ± 17 ms | 248 ± 25 ms | 443±45 V/s | 116±4 mV | 88 ± 15 ms | duration of increased cardiac contractility [4]: 10 min; increased cardiac contractility [4]: about 30%; Action Potential Duration 90% repolarisation (cardiac Purkinje fibres; 40 µM): 229 ± 22 ms; Maximum rate of depolarisation (cardiac Purkinje fibres; 40 µM): 516±67 V/s; Action Potential Amplitude (cardiac Purkinje fibres; 50 µM): 109±8 mV; Action Potential Duration 50% repolarisation (cardiac Purkinje fibres; 50 µM): 76 ± 12 ms; Action Potential Duration 90% repolarisation (cardiac Purkinje fibres; 50 µM): 221 ± 19 ms; Maximum rate of depolarisation (cardiac Purkinje fibres; 50 µM): 471±73 V/s; reduction of action potential duration at 50% repolarisation (cardiac Purkinje fibres; 50 µM): ~80%; reduction of action potential duration at 90% repolarisation (cardiac Purkinje fibres; 50 µM): ~50%; effect on rate of depolarization, amplitude of action potential and duration of action potential at 50% and 90% repolarization (cardiac Purkinje fibres): insignificant effect |
